According to ChEMBL document CHEMBL1135268, “Design, synthesis and in vitro evaluation of potent, novel, small molecule inhibitors of plasminogen activator inhibitor-1” (Bioorg Med Chem Lett, 2002):
pIC50: −log10 of the molar value.

Assays:
[1] = molecular target: T1, Plasminogen activator inhibitor 1 (Homo sapiens, UniProt P05121); experiment: Inhibitory activity against human plasminogen activator inhibitor-1 (PAI-1) evaluated by chromogenic assay.
[2] = molecular target: T1, Plasminogen activator inhibitor 1; experiment: Inhibitory activity against human plasminogen activator inhibitor-1 (PAI-1) evaluated by complex assay.

T1 sequence (P05121 whole entry): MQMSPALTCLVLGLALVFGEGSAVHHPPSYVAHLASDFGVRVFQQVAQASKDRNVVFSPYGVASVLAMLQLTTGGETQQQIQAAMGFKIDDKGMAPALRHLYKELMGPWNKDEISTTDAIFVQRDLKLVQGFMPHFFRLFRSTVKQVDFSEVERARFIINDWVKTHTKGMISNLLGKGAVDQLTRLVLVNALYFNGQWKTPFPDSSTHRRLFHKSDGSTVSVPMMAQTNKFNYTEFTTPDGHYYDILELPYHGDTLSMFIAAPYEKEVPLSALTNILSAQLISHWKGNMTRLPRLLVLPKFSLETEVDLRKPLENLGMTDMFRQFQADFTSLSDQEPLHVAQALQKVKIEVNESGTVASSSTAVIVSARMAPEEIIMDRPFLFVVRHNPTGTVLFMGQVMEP

Row | Structure (SMILES) | pIC50 [1] | pIC50 [2]
1 | O=C(O)CCCCCCCOc1ccc(NC(=O)C2=C(O)CN(c3ccc(Cl)cc3)C2=O)cc1 | 5.30 | 
2 | O=C(O)CCCCCCCOc1ccc(NC(=O)c2c(O)nc3ccc([N+](=O)[O-])cc3c2O)cc1 | 5.44 | 
3 | O=C(O)CCCCCCCOc1ccc(NC(=O)c2c(O)nc3ccc(-c4csc5ccccc45)cc3c2O)cc1 | 6.29 | 6.03
4 | CC1C(O)=C(C(=O)Nc2ccc(OCCCCCCCC(=O)O)cc2)C(=O)N1c1ccccc1 (stereo not drawn) | < 4.30 | 
5 | O=C(O)CCCCCCCOc1ccc(NC(=O)c2c(O)nc3cc(F)c(F)cc3c2O)cc1 | 5.63 | 
6 | CC(=O)Nc1ccc(N2CC(O)=C(C(=O)Nc3ccc(OCCCCCCCC(=O)O)cc3)C2=O)cc1 | < 4.30 | 
7 | O=C(O)CCCCCCCOc1ccc(NC(=O)C2=C(O)CN(c3ccc(Cl)c(Cl)c3)C2=O)cc1 | 4.89 | 
8 | O=C(Nc1ccc(OCCCCCCCn2cnnn2)cc1)C1=C(O)CN(c2ccc(Cl)cc2)C1=O | 6.16 | 6.52
9 | COc1ccccc1N1CC(O)=C(C(=O)Nc2ccc(OCCCCCCCC(=O)O)cc2)C1=O | < 4.30 | 
10 | COC(=O)CCCCCCCOc1ccc(NC(=O)C2=C(O)CN(c3ccc(Cl)cc3)C2=O)cc1 | < 4.30 | 
11 | N#Cc1ccc2c(O)c(C(=O)Nc3ccc(OCCCCCCCC(=O)O)cc3)c(=O)[nH]c2c1 | 6.05 | 
12 | COC(=O)c1cccc(N2CC(O)=C(C(=O)Nc3ccc(OCCCCCCCC(=O)O)cc3)C2=O)c1 | 4.75 | 
13 | O=C(O)CCCCCCCOc1ccc(NC(=O)C2=C(O)CN(c3ccc(Br)cc3)C2=O)cc1 | 5.70 | 
14 | O=C(O)CCCCCCCOc1ccc(NC(=O)c2c(O)c3ccc(-c4ccc5ccccc5c4)cc3[nH]c2=O)cc1 | 6.22 | 
15 | O=C(O)CCCCCCCOc1ccc(NC(=O)c2c(O)c3cccc(-c4cccc5ccccc45)c3[nH]c2=O)cc1 | < 4.30 | 
16 | O=C(O)CCCCCCCOc1ccc(NC(=O)C2=C(O)CN(c3ccccc3)C2=O)cc1 | 4.68 | 
17 | O=C(O)CCCCCCCOc1ccc(NC(=O)c2c(O)c3cc(-c4cc5ccccc5s4)ccc3[nH]c2=O)cc1 | 6.30 | 
18 | O=C(O)CCCCCCCOc1ccc(NC(=O)C2=C(O)C(Cc3ccc(O)cc3)NC2=O)cc1 (stereo not drawn) | < 4.30 | 
19 | Cc1ccc(N2CC(O)=C(C(=O)Nc3ccc(OCCCCCCCn4cnnn4)cc3)C2=O)cc1 | 6.05 | 6.08
20 | O=C(O)CCCCCCCOc1ccc(NC(=O)c2c(O)c3cc(-c4ccc(Cl)cc4)ccc3[nH]c2=O)cc1 | 5.70 | 
21 | O=C(O)CCCCCCCOc1ccc(NC(=O)C2=C(O)CN(c3ccc(N4CCOCC4)cc3)C2=O)cc1 | < 4.30 | 
22 | O=C(O)CCCCCCCOc1ccc(NC(=O)C2=C(O)CN(c3ccc4ccccc4c3)C2=O)cc1 | 5.40 | 
23 | O=C(O)CCCCCCCOc1ccc(NC(=O)c2c(O)c3ccc(-c4cc5ccccc5s4)cc3[nH]c2=O)cc1 | 6.52 | 
24 | O=C(Nc1ccc(OCCCCCCCn2cnnn2)cc1)c1c(O)c2cc(-c3cc4ccccc4s3)ccc2[nH]c1=O | 6.00 | 6.54

Row | Structure (SMILES) | pIC50 [1] | pIC50 [2]
25 | COc1cc2[nH]c(=O)c(C(=O)Nc3ccc(OCCCCCCCC(=O)O)cc3)c(O)c2cc1OC | 5.78 | 
26 | COc1ccc(N2CC(O)=C(C(=O)Nc3ccc(OCCCCCCCC(=O)O)cc3)C2=O)cc1 | 5.44 | 
27 | O=C(O)CCCCCCCOc1ccc(NC(=O)c2c(O)c3cc(-c4ccc5ccccc5c4)ccc3[nH]c2=O)cc1 | 6.17 | 
28 | O=C(O)CCCCCCCOc1ccc(NC(=O)C2=C(O)CN(c3ccccc3Cl)C2=O)cc1 | < 4.30 | 
29 | Nc1cccc2nc(O)c(C(=O)Nc3ccc(OCCCCCCCC(=O)O)cc3)c(O)c12 | 5.37 | 
30 | O=C(O)CCCCCCCOc1ccc(NC(=O)c2c(O)c3ccccc3[nH]c2=O)cc1 | 5.73 | 
31 | O=C(O)CCCCCCCOc1ccc(NC(=O)C2=C(O)CN(Cc3ccccc3)C2=O)cc1 | < 4.30 | 
32 | O=C(O)CCCCCCCOc1ccc(NC(=O)c2c(O)nc3ccc(I)cc3c2O)cc1 | 5.66 | 
33 | CC(C)c1ccc(N2CC(O)=C(C(=O)Nc3ccc(OCCCCCCCC(=O)O)cc3)C2=O)cc1 | 5.63 | 
34 | CCCCCc1ccc2[nH]c(=O)c(C(=O)Nc3ccc(OCCCCCCCC(=O)O)cc3)c(O)c2c1 | 5.74 | 
35 | O=C(O)CCCCCCCOc1ccc(NC(=O)C2=C(O)CN(c3cccc4ccccc34)C2=O)cc1 | < 4.30 | 
36 | O=C(O)CCCCCCCOc1ccc(NC(=O)c2c(O)c3c([N+](=O)[O-])cccc3[nH]c2=O)cc1 | 5.10 | 
37 | Nc1ccc2c(O)c(C(=O)Nc3ccc(OCCCCCCCC(=O)O)cc3)c(O)nc2c1 | < 4.52 | 
38 | O=C(O)CCCCCCCOc1ccc(NC(=O)c2c(O)c3ccc(C(F)(F)F)cc3[nH]c2=O)cc1 | 5.99 | 
39 | O=C(O)CCCCCCCOc1ccc(NC(=O)c2c(O)c3c(Cl)cccc3[nH]c2=O)cc1 | 5.52 | 
40 | O=C(O)CCCCCCCOc1ccc(NC(=O)c2c(O)nc3ccc(Cl)cc3c2O)cc1 | 5.71 | 
41 | O=C(O)CCCCCCCOc1ccc(NC(=O)c2c(O)c3c(I)cccc3[nH]c2=O)cc1 | 5.15 | 
42 | O=C(O)CCCCCCCOc1ccc(NC(=O)c2c(O)c3cc(F)ccc3[nH]c2=O)cc1 | 5.31 | 
43 | O=C(O)CCCCCCCOc1ccc(/C=c2/[nH]c(=O)/c(=C/c3ccc(NC(=O)c4cccs4)cc3)[nH]c2=O)cc1 | 6.70 | 6.29
44 | Cc1ccc(N2CC(O)=C(C(=O)Nc3ccc(OCCCCCCCC(=O)O)cc3)C2=O)cc1 | 5.71 | 
45 | O=C(O)CCCCCCCOc1ccc(NC(=O)C2=C(O)C(c3ccccc3)NC2=O)cc1 (stereo not drawn) | 4.31 | 
46 | O=C(O)CCCCCCCOc1ccc(NC(=O)C2=C(O)CN(c3ccc([N+](=O)[O-])cc3)C2=O)cc1 | 5.37 | 
47 | COc1ccc(-c2cccc3c(O)c(C(=O)Nc4ccc(OCCCCCCCC(=O)O)cc4)c(=O)[nH]c23)cc1 | 4.52 | 
48 | Nc1ccc2nc(O)c(C(=O)Nc3ccc(OCCCCCCCC(=O)O)cc3)c(O)c2c1 | < 4.70 | 
